The source of these data is BindingDB's records for doi:10.1016/j.bioorg.2007.03.001 (Burnham Institute For Medical Research, 2007).

Molecules are shown by their SMILES.

This assay addresses Isoform Bcl-X(L) of Bcl-2-like protein 1 (Bcl-xL) (Homo sapiens, UniProt Q07817). The assay is described as follows: DELFIA Assay. The source says: In order to figure whether these compounds were capable of displacing the interactions between Bci-XL and it's pro-apoptotic counterparts, it was testes in a heterogeneous lanthanide-based assay that have recently developed based on the DELFIA (dissociation enhanced lanthanide fluoro-immuno assay)technology (Perkin-Elmer).

As usually defined, the IC50 is the concentration that gives 50% inhibition. A higher IC50 goes with weaker potency. The term Kd denotes the equilibrium constant for the complex coming apart. Higher therefore signals a looser complex.

Isoform Bcl-X(L) of Bcl-2-like protein 1 (Bcl-xL), sequence (Q07817 whole entry G70A, canonical isoform): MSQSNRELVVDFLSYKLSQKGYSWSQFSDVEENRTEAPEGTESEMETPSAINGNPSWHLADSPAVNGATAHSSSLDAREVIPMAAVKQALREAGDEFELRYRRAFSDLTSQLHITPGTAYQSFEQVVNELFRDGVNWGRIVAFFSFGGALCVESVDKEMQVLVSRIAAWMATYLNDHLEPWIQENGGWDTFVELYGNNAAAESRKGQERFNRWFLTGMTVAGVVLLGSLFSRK

The compound `N#Cc1c(-c2ccc3c(c2)OCO3)cc(-c2ccccc2O)[nH]c1=O` [BI-21C5] showed an IC50 of 5.1 µM and a Kd of 19.8 µM. In the case of `Cc1csc(NC(=O)c2ccccc2C(=O)O)c1-c1nc2ccccc2s1` [BI-21C4], the IC50 turned out to be 3.3 µM. Same read-out and setting: with `O=C(O)c1ccccc1C(=O)c1ccc(Sc2ccccc2)c([N+](=O)[O-])c1` [BI-21C7] the figure was 5.7 µM; with `O=C(O)c1ccccc1C(=O)c1ccc(Sc2ccc(Cl)cc2)c([N+](=O)[O-])c1` [BI-21C6], 0.5 µM.
